Data on ten compounds can be found in PMC10617418, “Identification of tanshinone I as cap-dependent endonuclease inhibitor with broad-spectrum antiviral effect” (Journal of Virology, 2023).

The test system of data set [1] is SFTSV. In kind it is cell-based, severe fever with thrombocytopenia syndrome virus.
The nature of data set [2]: cytotoxicity by CCK8 assay. The note with it: African green monkey, Vero cells. (In general: Tetrazolium dyes change colour on reduction, which living cells bring about.)
Data set [3] deals with SFTSV. Nature of the data set: microbe, parasite or virus in culture. The note with it: Severe fever with thrombocytopenia syndrome virus, Vero, 36 h, read-out: EC50 (Vero) against SFTSV.
The test system of data set [4] is SFTSV.
Data set [5] has as its system SFTSV. Nature of the data set: microbe, parasite or virus in culture. It counts as cell-based. The note with it: Severe fever with thrombocytopenia syndrome virus, Huh-7, 36 h, read-out: EC50 (Huh 7) against SFTSV.
For data set [6], the system named is LCMV. The conditions noted are these: mouse, in vivo.
The test system of data set [7] is SFTSV. The conditions noted are these: mouse, in vivo.
Data set [8] has as its system IAV (H1N1). The conditions noted are these: mouse, in vivo.
Data set [9] has as its system IAV (H1N1). Nature of the data set: microbe, parasite or virus in culture. In kind it is cell-based. The conditions noted are these: Influenza A virus, H1N1, MDCK, read-out: EC50 against IAV (H1N1).
The target in data set [10] is T1, SFTSV EndoN (Dabie bandavirus, UniProt I0DF35). In kind it is biochemical.
A further data set has as its target T2, LCMV EndoN (Lymphocytic choriomeningitis virus, UniProt P14240).
T2 sequence (P14240 26-287 limits assumed): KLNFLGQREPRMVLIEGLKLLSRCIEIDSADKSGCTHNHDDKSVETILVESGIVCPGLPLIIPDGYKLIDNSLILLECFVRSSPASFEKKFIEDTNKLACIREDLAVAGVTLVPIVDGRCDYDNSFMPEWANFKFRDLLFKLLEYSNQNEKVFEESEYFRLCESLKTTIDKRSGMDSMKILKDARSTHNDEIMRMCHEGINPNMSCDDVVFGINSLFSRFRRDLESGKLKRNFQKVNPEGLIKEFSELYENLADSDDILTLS
Nature of the data set: biochemical.

The next data set is described as follows: water solubility. It counts as physicochemical.
For the next data set, the system named is HRTV. In words: microbe, parasite or virus in culture. The conditions noted are these: Heartland virus, Vero, 36 h, read-out: EC50 against HRTV. It counts as cell-based.
Data set [11] has as its target T1, SFTSV EndoN. Nature of the data set: biochemical. In kind it is binding.
In a further data set the test system is GTV. Nature of the data set: microbe, parasite or virus in culture. In kind it is cell-based. The note with it: Guertu virus, Vero, 36 h, read-out: EC50 against GTV.
Data set [12] concerns LCMV. In words: organism not typed. It counts as cell-based, lymphatic choriomeningitis virus. The note with it: BHK-21, read-out: EC50 against LCMV.
Data set [13] deals with T1, SFTSV EndoN. Nature of the data set: biochemical.
Data set [14] is described as follows: pharmacokinetic analysis in rats. The conditions noted are these: 20 mg/kg.
The conditions of data set [15]: compared with tanshinone IIA; cited from earlier work.
[16] abbreviates: male, Sprague-Dawley, rat, plasma, ip.
Setting [17] is: male, Sprague-Dawley, rat, plasma, iv.

SMILES strings stand for the structures. Where two headings read alike, the source gives them in different places.

T1 sequence (I0DF35 20-221 limits assumed): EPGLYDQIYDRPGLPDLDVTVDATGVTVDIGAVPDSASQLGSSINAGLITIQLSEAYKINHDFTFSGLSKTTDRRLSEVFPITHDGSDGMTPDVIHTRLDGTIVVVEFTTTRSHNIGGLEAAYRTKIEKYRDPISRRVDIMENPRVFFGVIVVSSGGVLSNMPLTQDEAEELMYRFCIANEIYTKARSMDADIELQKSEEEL

For orientation: CC50 means the concentration giving 50% cytotoxicity. Low readings indicate greater toxicity to the cells, high ones lower toxicity to the cells. What is called EC50 is the concentration giving half of the maximal effect. Turning to `Cc1cc(O)c2c(c1)C(=O)c1cc(O)cc(O)c1C2=O` [Emodin, emodin], in the data set on SFTSV [1], the “inhibition of SFTSV in time-of-addition experiment by IFA” value is “significant inhibitory activities under the post-entry and full-time treatment patterns”. In data set [2], this compound returned a CC50 at 36 h of 145 µM. For the same compound, the figures for the EC50 in the data set on SFTSV [3] and in the data set on SFTSV [5] were 2.75 µM and 1.07 µM, respectively. Also, in the data set with SFTSV [4], the “SI (CC50/EC50)” value is 53.
For `NC(=O)c1nc(F)c[nH]c1=O` [T-705, favipiravir, reference compound], in the data set on SFTSV [1], the “stage of action in time-of-addition experiment” value (from here on “stage of action”) is “comparable inhibition rate under the post-infection and full-time treatment patterns but had a negligible influence on the virions or at the entry stage”. For the same compound, in the data set with LCMV [6], the “influence on body weight” value is recorded as “negligible influence”. Also, the EC50 with SFTSV [3] was roughly 47 µM. In the data set on SFTSV [7], the “expression of proinflammatory factors (TNF-α, IL-1β, IL-6, IL-18) in blood and spleen” value was “markedly decreased”; the “toxicity in mice (body weight) within 3 days” value is reported as “neither tanshinone IIA nor T-705 exhibited obvious toxicity”; the “viral copies in blood and spleen” value is recorded as “effectively reduced”. In the data set with IAV (H1N1) [8], the “influence on body weight” value is recorded as “negligible influence” and the “lung pathology (H&E staining)” value is recorded as “significant pathological remission”.
The term Kd denotes the equilibrium constant for the complex coming apart. A lower Kd goes with higher affinity. One may read the AUC(0-t) as exposure summed from dosing to a finite time, without extrapolation to infinity. Read a high AUC(0-t) as more exposure. One may read the Cmax as the highest concentration seen after dosing. What is called Tmax is the time from dosing to the highest level. One may read the half-life as the time needed for the level to fall by half in the phase considered. A high value points to slow decline. Take `Cc1coc2c1C(=O)C(=O)c1c-2ccc2c(C)cccc12` [Tanshinone I, tanshinone I]: the EC50 stood at 1.04 µM in the data set with IAV (H1N1) [9]; 365 µM at LCMV EndoN; 0.32 µM in the data set on HRTV; 0.45 µM in the data set with GTV; 2.92 µM in the data set with LCMV [12]; 2.03 µM in the data set with SFTSV [3]. Further, the EC50 at SFTSV EndoN [13] turned out to be 308 µM; in the data set on SFTSV [5], 0.44 µM. For the same compound, the “inhibition of cleavage of FAM-labeled ssRNA substrate” value against SFTSV EndoN [10] was “significantly inhibited the cleavage”. Also, in the data set with SFTSV [1], the “inhibition of SFTSV in time-of-addition experiment by IFA” value is “significant inhibitory activities under the post-entry and full-time treatment patterns”. Moreover, the “stage of action” value with SFTSV [1] is given as “acted at the post-entry stage”. The compound also displayed a CC50 at 36 h in data set [2] of 245 µM. The water solubility result in “water solubility” is “poor water solubility”. For the same compound, the “influence on body weight” value with LCMV [6] and in the data set on IAV (H1N1) [8] was “negligible influence” throughout. In addition, the “viral copies and proinflammatory factors in the liver” value with LCMV [6] (iv) is “reduced”. In addition, binding at SFTSV EndoN [11] was characterised by a dissociation constant (Kd) of 680 µM. In addition, the body weight change result in the data set on SFTSV [7] was “less than 10%”. Besides, in the data set on IAV (H1N1) [8], the “lung pathology (H&E staining)” value is “significant pathological remission”. In addition, in the data set with IAV (H1N1) [8], the “viral copies in the lung” value is recorded as “lowered the viral copies in the lung”. Besides, the “proinflammatory factors in the lung” value with IAV (H1N1) [8] (iv) is “downregulated”. Besides, the “SI (CC50/EC50)” value with SFTSV [4] is listed as 121. Besides, the bioavailability result in [14] (i.g. or i.p., SD rats) is given as “poor”. Besides, the values for the AUC(0-t) in data set [14] (setting [16]) and in [14] (setting [17]) were 0.265 µg·h/mL and 0.412 µg·h/mL, respectively. Also, the results for the Cmax in data set [14] (setting [16]) and in data set [14] (setting [17]) were 0.0128 µg/mL and 0.284 µg/mL, respectively. Moreover, in data set [14] (setting [16]), the Tmax came to 2.5 h. Moreover, the half-life in [14] (setting [16]) is 35 h; in data set [14] (setting [17]), 16.1 h.
Compound `COc1c(CC=C(C)C)c(O)cc2oc(=O)c(-c3ccc(O)cc3O)cc12` [Glycycoumarin, glycycoumarin] showed a CC50 at 36 h in [2] of 46.3 µM. Also, the EC50 in the data set on SFTSV [3] is 1.86 µM; with SFTSV [5], 3.75 µM. For the same compound, the “SI (CC50/EC50)” value in the data set with SFTSV [4] amounted to 25.
`CC(C)=CCc1c(O)ccc(-c2coc3cc(O)cc(O)c3c2=O)c1O` [Licoisoflavone A, licoisoflavone A] had a CC50 at 36 h in data set [2] of 167 µM. Further, the EC50 in the data set on SFTSV [3] stood at 3.8 µM; in the data set on SFTSV [5], 1.53 µM. The “SI (CC50/EC50)” value in the data set on SFTSV [4] is 44.
In the case of `O=C1c2c(O)c(=O)ccn2N([C@@H]2c3ccccc3SCc3c2ccc(F)c3F)[C@@H]2COCCN12` [Baloxavir, baloxavir, reference compound], the EC50 in the data set on IAV (H1N1) [9] came out at 0.00102 µM; with HRTV, 1.32 µM; with GTV it was 3.74 µM; with LCMV [12] it was 2.63 µM; in the data set with SFTSV [3], 5.66 µM. Also, the “inhibition of cleavage of FAM-labeled ssRNA substrate” value against SFTSV EndoN [10] is on record as “partially inhibited the cleavage”. The compound further came in with a half-maximal cytotoxic concentration (CC50) at 36 h in data set [2] of 55.2 µM. Further, the “SI (CC50/EC50)” value in the data set on SFTSV [4] is on record as 10.
Consider `Cc1coc2c1C(=O)C(=O)c1c-2ccc2c1CCCC2(C)C` [Tanshinone IIA, tanshinone IIA], for which the EC50 in the data set on IAV (H1N1) [9] worked out at 4.02 µM; at LCMV EndoN, 597 µM; in the data set on HRTV it was 1.64 µM; in the data set on GTV, 1.2 µM; in the data set on LCMV [12], 4.64 µM; in the data set on SFTSV [3], 2.86 µM. Further, the EC50 on SFTSV EndoN [13] turned out to be 917 µM. Besides, the “inhibition of cleavage of FAM-labeled ssRNA substrate” value against SFTSV EndoN [10] is listed as “significantly inhibited the cleavage”. The compound also returned a CC50 at 36 h in data set [2] of 242 µM. For the same compound, binding at SFTSV EndoN [11] was characterised by a dissociation constant (Kd) of 740 µM. Moreover, in the data set with SFTSV [7], the “expression of proinflammatory factors (TNF-α, IL-1β, IL-6, IL-18) in blood and spleen” value was “markedly decreased”. Besides, the “toxicity in mice (body weight) within 3 days” value with SFTSV [7] is “neither tanshinone IIA nor T-705 exhibited obvious toxicity”. For the same compound, the “viral copies in blood and spleen” value in the data set on SFTSV [7] is on record as “effectively reduced”. Besides, the “SI (CC50/EC50)” value in the data set with SFTSV [4] is listed as 85.
Consider `CC(C)=CCc1cc2c(=O)cc(-c3ccc(O)cc3)oc2cc1O` [Licoflavone A, licoflavone A], for which the “stage of action” value in the data set on SFTSV [1] was “acted at both the entry and post-entry stages”. Further, in data set [2], the CC50 at 36 h was determined as 63.8 µM. Besides, the results for the EC50 in the data set on SFTSV [3] and in the data set with SFTSV [5] were 2.8 µM and 2.5 µM, respectively. Besides, in the data set on SFTSV [4], the “SI (CC50/EC50)” value is recorded as 23.
With `Cc1c(S(=O)(=O)[O-])oc2c1C(=O)C(=O)c1c-2ccc2c1CCCC2(C)C.[Na+]` [tanshinone IIA sulfonate sodium], the water solubility result in data set [15] is given as “significantly improved water solubility”. In the data set with SFTSV [4], the “antiviral activity against SFTSV relative to tanshinone I or IIA” value was “poorer antiviral activity”.
For `COc1c(/C=C/C(=O)c2ccc(O)c(CC=C(C)C)c2)ccc(O)c1O` [Licochalcone D, licochalcone D], in data set [2], the midpoint of cytotoxicity, the CC50 at 36 h, lay at 40 µM. For the same compound, the EC50 with SFTSV [3] was determined as 4 µM; with SFTSV [5], 4.29 µM. Moreover, in the data set with SFTSV [4], the “SI (CC50/EC50)” value amounted to 10.
